Assay results: patent US20250136722A1, “CYTOTOXICITY TARGETING CHIMERAS” (GLAXOSMITHKLINE INTELLECTUAL PROPERTY DEVELOPMENT LIMITED, priority 2021, published 2025)
Values joined by “and” are separate entries in the source; they are usually repeats but may differ in a detail not shown here. Identical values can stand only once.

How the values were obtained:
[1] = target: T1, CHOK1 cells engineered to overexpress human CCR2 (Homo sapiens, UniProt P41597); test: Antibody dependent cellular cytotoxicity (ADCC) reporter assay (Example 199); assay type: cell-based; conditions: with anti-cotinine antibody SEQ ID NO: 11/12; CHOK1-human CCR2 target cells, Jurkat FcγRIIIa NFAT-luciferase reporter cells; 12-18 hours; read-out: ADCC Reporter Assay pEC50 (converted)
T1 construct: expressed in transfected cells; host or cells: CHOK1 cells
Method in brief: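 Potency is reported as pEC50 from a nonlinear fit, averaged over runs, using luciferase signal divided by that of compound-free wells. The readout comes from NFAT-luciferase Jurkat cells expressing FcγRIIIa, mixed for 12–18 h with human CCR2-overexpressing CHOK1 cells, 1 pM–10 μM ARM compound and 0.01–200 μg/mL Fc-enhanced anti-cotinine IgG1.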

[2] = target: Anti-cotinine antibody (SEQ ID NO: 11 / SEQ ID NO: 12, rabbit variable region with human IgG1 Fc domain); test: Binding of anti-cotinine antibody to ARM compounds by SPR, Biacore T200, 37° C. (Example 202); conditions: pH 7.4, rabbit variable region/human IgG1 Fc antibody captured on protein A
Procedure: Anti-cotinine antibodies having a heavy chain sequence of SEQ ID NO: 11 and a light chain sequence of SEQ ID NO: 12 (rabbit variable region with human IgG1 Fc domain containing a DE mutation (S239D/1332E)) were captured on one or more flow cells of a protein A sensor chip (Cytiva) using a Biacore T200 while reserving flow cell 1 as a reference. Following capture, a 3000 second wait step was included to reduce drift during compound analysis. ARM compounds of Formula (I) were then injected at 100 μL/min with 200 and 2000 second association and dissociation times. The entire experiment was run at 37° C. with running buffer containing 10 mM HEPES pH 7.4, 150 mM NaCl, 0.005% P20 and 1% DMSO. ARM compounds of Formula (I) were titrated with a top concentration of 200 nM using a 3-fold 5-point dilution series and a corresponding 5-injection buffer cycle was run for blank subtraction. Data were double referenced by subtracting the response of the reference flow cell from that of the antibody-containing flow cell and subsequently subtracting the referenced blank sensorgrams. Following compound analysis, the surface was regenerated using a 30 second injection of pH 1.5 glycine at a flow rate of 30 μL/min after which antibody was re-captured. The experiment was run using Biacore T200 control software and evaluated using Biacore T200 Evaluation software. Curves were fit with a 1:1 kinetic binding model to obtain kon(1/Ms), koff(1/s), Kd (M) determined as koff/kon, and residence time determined as 1/koff. (s).
Anti-cotinine antibody was tested for binding to ARMs compounds of Formula (I) of the invention in the above assay in or more experimental runs and the results are shown in Table 5 below. Affinity is reported as a pKd value. The pKd value is the negative log of the Kd value, wherein the Kd value is the dissociation constant measured in molar (M) as noted above. For compounds tested in more than one experimental run, the pKd value is reported as an average.

Row | Compound | EC50 [1] | pKd of Antibody for ARM Compound of Formula (I) [2]
1 | CC(C)N(C)[C@@H]1CC[C@H](N2CC[C@H](Nc3ncnc4ccc(C(F)(F)F)cc34)C2=O)[C@H](NC(=O)[C@H]2CC[C@@H](NC(=O)CCOCCNC(=O)COCCNC(=O)[C@H]3CC(=O)N(C)[C@@H]3c3cccnc3)CC2)C1 [Example 98, (2S,3S)-N-(2-(2-((2-(3-(((1S,4s)-4-(((1R,2S,5R)-5-(Isopropyl(methyl)amino)-2-((S)-2-oxo-3-((6-(trifluoromethyl)quinazolin-4-yl)amino)pyrrolidin-1-yl)cyclohexyl)carbamoyl)cyclohexyl)amino)-3-oxopropoxy)ethyl)amino)-2-oxoethoxy)ethyl)-1-methyl-5-oxo-2-(pyridin-3-yl)pyrrolidine-3-carboxamide] | 1 nM and 0.631 nM | 9.0095
2 | CN1C(=O)C[C@H](C(=O)NCCOCC(=O)NCCOCC(=O)NCCOCCC(=O)N[C@@H]2C[C@H](NC(C)(C)C)CC[C@@H]2N2CC[C@H](Nc3ncnc4ccc(C(F)(F)F)cc34)C2=O)[C@H]1c1cccnc1 [Example 103] | 1.56 nM and 0.577 nM | 9.0985
3 | CC(C)N(C)[C@@H]1CC[C@H](N2CC[C@H](Nc3ncnc4ccc(C(F)(F)F)cc34)C2=O)[C@H](NC(=O)COCCNC(=O)CCOCCNC(=O)COCCNC(=O)[C@H]2CC(=O)N(C)[C@@H]2c2cccnc2)C1 [Example 104, (2S,3S)-N-(18-(((1R,2S,5R)-5-(Isopropyl(methyl)amino)-2-((S)-2-oxo-3-((6-(trifluoromethyl)quinazolin-4-yl)amino)pyrrolidin-1-yl)cyclohexyl)amino)-5,12,18-trioxo-3,9,16-trioxa-6,13-diazaoctadecyl)-1-methyl-5-oxo-2-(pyridin-3-yl)pyrrolidine-3-carboxamide] | 2.28 nM | 9.051
4 | CC(C)N(C)[C@@H]1CC[C@H](N2CC[C@H](Nc3ncnc4ccc(C(F)(F)F)cc34)C2=O)[C@H](NC(=O)CCOCCNC(=O)[C@H]2CC[C@H](NC(=O)COCCNC(=O)[C@H]3CC(=O)N(C)[C@@H]3c3cccnc3)CC2)C1 [Example 108] | 0.0501 nM | 8.9855
5 | CC(C)N(C)[C@@H]1CC[C@H](N2CC[C@H](Nc3ncnc4ccc(C(F)(F)F)cc34)C2=O)[C@H](NC(=O)COCCNC(=O)[C@H]2CC[C@@H](NC(=O)CCOCCNC(=O)[C@H]3CC(=O)N(C)[C@@H]3c3cccnc3)CC2)C1 [Example 109] | 0.17 nM | 8.951
6 | CC(C)N(C)[C@@H]1CC[C@H](N2CC[C@H](Nc3ncnc4ccc(C(F)(F)F)cc34)C2=O)[C@H](NC(=O)CCOCCNC(=O)[C@H]2CC[C@@H](NC(=O)CCOCCNC(=O)[C@H]3CC(=O)N(C)[C@@H]3c3cccnc3)CC2)C1 [Example 110] | 0.167 nM | 8.9085
7 | CC(C)N(C)[C@@H]1CC[C@H](N2CC[C@H](Nc3ncnc4ccc(C(F)(F)F)cc34)C2=O)[C@H](NC(=O)[C@H]2CC[C@@H](NC(=O)CCO[C@H]3CC[C@H](OCCNC(=O)[C@H]4CC(=O)N(C)[C@@H]4c4cccnc4)CC3)CC2)C1 [Example 112, (2S,3S)-N-(2-(((1S,4S)-4-(3-(((1S,4S)-4-(((1R,2S,5R)-5-(Isopropyl(methyl)amino)-2-((S)-2-oxo-3-((6-(trifluoromethyl)quinazolin-4-yl)amino)pyrrolidin-1-yl)cyclohexyl)carbamoyl)cyclohexyl)amino)-3-oxopropoxy)cyclohexyl)oxy)ethyl)-1-methyl-5-oxo-2-(pyridin-3-yl)pyrrolidine-3-carboxamide] | 0.398 nM | 9.343
8 | CC(C)N(C)[C@@H]1CC[C@H](N2CC[C@H](Nc3ncnc4ccc(C(F)(F)F)cc34)C2=O)[C@H](NC(=O)[C@H]2CC[C@H](NC(=O)CCO[C@H]3CC[C@H](OCCNC(=O)[C@H]4CC(=O)N(C)[C@@H]4c4cccnc4)CC3)CC2)C1 [Example 113] | 4.82 nM and 8.17 nM | 9.767
9 | CC(C)N(C)[C@@H]1CC[C@H](N2CC[C@H](Nc3ncnc4ccc(C(F)(F)F)cc34)C2=O)[C@H](NC(=O)[C@H]2C[C@@H](NC(=O)CCO[C@H]3CC[C@H](OCCNC(=O)[C@H]4CC(=O)N(C)[C@@H]4c4cccnc4)CC3)C2)C1 [Example 115] | 0.408 nM and 0.305 nM | 9.363
10 | CC(C)N(C)[C@@H]1CC[C@H](N2CC[C@H](Nc3ncnc4ccc(C(F)(F)F)cc34)C2=O)[C@H](NC(=O)CCOCCOCCNC(=O)NCCOCCOCCNC(=O)[C@H]2CC(=O)N(C)[C@@H]2c2cccnc2)C1 [Example 119, (2S,3S)-N-(20-(((1R,2S,5R)-5-(Isopropyl(methyl)amino)-2-((S)-2-oxo-3-((6-(trifluoromethyl)quinazolin-4-yl)amino)pyrrolidin-1-yl)cyclohexyl)amino)-10,20-dioxo-3,6,14,17-tetraoxa-9,11-diazaicosyl)-1-methyl-5-oxo-2-(pyridin-3-yl)pyrrolidine-3-carboxamide] | 1.58 nM | 9.1735
11 | CC(C)N(C)[C@@H]1CC[C@H](N2CC[C@H](Nc3ncnc4ccc(C(F)(F)F)cc34)C2=O)[C@H](NC(=O)[C@H]2CC[C@H](NC(=O)CCCOCCCCOCCNC(=O)[C@H]3CC(=O)N(C)[C@@H]3c3cccnc3)CC2)C1 [Example 121, (2S,3S)-N-(2-(4-(4-(((1R,4r)-4-(((1R,2S,5R)-5-(Isopropyl(methyl)amino)-2-((S)-2-oxo-3-((6-(trifluoromethyl)quinazolin-4-yl)amino)pyrrolidin-1-yl)cyclohexyl)carbamoyl)cyclohexyl)amino)-4-oxobutoxy)butoxy)ethyl)-1-methyl-5-oxo-2-(pyridin-3-yl)pyrrolidine-3-carboxamide] | 5.28 nM | 9.332
12 | CC(C)N(C)[C@@H]1CC[C@H](N2CC[C@H](Nc3ncnc4ccc(C(F)(F)F)cc34)C2=O)[C@H](NC(=O)CCNC2CCC3(CC2)CCN(CCCNC(=O)[C@H]2CC(=O)N(C)[C@@H]2c2cccnc2)CC3)C1 [Example 138, (2S,3S)-N-(3-(9-((3-(((1R,2S,5R)-5-(Isopropyl(methyl)amino)-2-((S)-2-oxo-3-((6-(trifluoromethyl)quinazolin-4-yl)amino)pyrrolidin-1-yl)cyclohexyl)amino)-3-oxopropyl)amino)-3-azaspiro[5.5]undecan-3-yl)propyl)-1-methyl-5-oxo-2-(pyridin-3-yl)pyrrolidine-3-carboxamide] | 3.98 nM | 9.0865
13 | CC(C)N(C)[C@@H]1CC[C@H](N2CC[C@H](Nc3ncnc4ccc(C(F)(F)F)cc34)C2=O)[C@H](NC(=O)COCCNC(=O)COCCOCCNC(=O)CCNC(=O)[C@H]2CC(=O)N(C)[C@@H]2c2cccnc2)C1 [Example 143, (2S,3S)-N-(1-(((1R,2S,5R)-5-(Isopropyl(methyl)amino)-2-((S)-2-oxo-3-((6-(trifluoromethyl)quinazolin-4-yl)amino)pyrrolidin-1-yl)cyclohexyl)amino)-1,7,16-trioxo-3,9,12-trioxa-6,15-diazaoctadecan-18-yl)-1-methyl-5-oxo-2-(pyridin-3-yl)pyrrolidine-3-carboxamide] | 3.24 nM | 9.275
14 | CC(C)N(C)[C@@H]1CC[C@H](N2CC[C@H](Nc3ncnc4ccc(C(F)(F)F)cc34)C2=O)[C@H](NC(=O)COCCNC(=O)COCCNC(=O)CCOCCNC(=O)[C@H]2CC(=O)N(C)[C@@H]2c2cccnc2)C1 [Example 151, (2S,3S)-N-(1-(((1R,2S,5R)-5-(Isopropyl(methyl)amino)-2-((S)-2-oxo-3-((6-(trifluoromethyl)quinazolin-4-yl)amino)pyrrolidin-1-yl)cyclohexyl)amino)-1,7,13-trioxo-3,9,16-trioxa-6,12-diazaoctadecan-18-yl)-1-methyl-5-oxo-2-(pyridin-3-yl)pyrrolidine-3-carboxamide] | 3.03 nM | 9.0755
15 | CC(C)N(C)[C@@H]1CC[C@H](N2CC[C@H](Nc3ncnc4ccc(C(F)(F)F)cc34)C2=O)[C@H](NC(=O)C2CCN(C3CCN(C(=O)CCCCCCCCCNC(=O)[C@@H]4CC(=O)N(C)[C@H]4c4cccnc4)CC3)CC2)C1 [Example 157] | 0.2 nM | 10.135
